# Test results from US12448395B2 (BRISTOL-MYERS SQUIBB COMPANY, priority 2019, dated 2025).
# Biological target: T1, human TLR9 (Homo sapiens, UniProt Q9NR96)
# T1 sequence (Q9NR96 26-1032): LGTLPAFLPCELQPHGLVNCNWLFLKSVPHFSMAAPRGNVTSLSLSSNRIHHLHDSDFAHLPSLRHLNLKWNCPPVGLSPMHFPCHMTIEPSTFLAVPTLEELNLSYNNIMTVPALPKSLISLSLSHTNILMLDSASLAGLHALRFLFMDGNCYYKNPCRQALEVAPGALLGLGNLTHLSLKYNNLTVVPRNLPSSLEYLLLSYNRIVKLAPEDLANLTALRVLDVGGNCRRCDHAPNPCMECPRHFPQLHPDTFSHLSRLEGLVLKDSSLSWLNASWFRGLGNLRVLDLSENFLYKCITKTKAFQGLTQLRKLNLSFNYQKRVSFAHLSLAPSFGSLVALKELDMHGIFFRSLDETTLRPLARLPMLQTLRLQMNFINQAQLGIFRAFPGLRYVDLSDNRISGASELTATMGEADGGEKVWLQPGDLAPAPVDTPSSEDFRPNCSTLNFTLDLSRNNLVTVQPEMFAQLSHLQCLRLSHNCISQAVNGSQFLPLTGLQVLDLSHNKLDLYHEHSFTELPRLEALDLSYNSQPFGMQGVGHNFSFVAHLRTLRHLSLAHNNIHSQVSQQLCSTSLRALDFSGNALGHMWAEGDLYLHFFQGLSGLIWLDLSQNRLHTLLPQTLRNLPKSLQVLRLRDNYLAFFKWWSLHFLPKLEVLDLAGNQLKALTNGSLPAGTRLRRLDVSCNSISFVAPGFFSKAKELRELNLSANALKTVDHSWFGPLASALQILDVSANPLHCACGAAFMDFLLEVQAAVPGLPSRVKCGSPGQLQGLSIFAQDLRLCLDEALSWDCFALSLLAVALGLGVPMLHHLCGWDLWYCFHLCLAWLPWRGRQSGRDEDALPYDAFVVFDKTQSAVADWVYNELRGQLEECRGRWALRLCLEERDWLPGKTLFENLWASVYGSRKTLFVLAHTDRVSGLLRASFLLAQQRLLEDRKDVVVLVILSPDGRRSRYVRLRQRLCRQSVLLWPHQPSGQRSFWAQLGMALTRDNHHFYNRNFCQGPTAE
# Assay: TLR9 inhibition reporter assay (HEK-Blue SEAP, ODN2006 stimulation)
# Assay type: cell-based
# Settings: HEK-Blue cells overexpressing human TLR9, ODN2006 5 nM
# Description: TLR7/8/9 Inhibition Reporter Assays
# HEK-Blue™-cells (Invivogen) overexpressing human TLR7, TLR8 or TLR9 receptors were used for screening inhibitors of these receptors using an inducible SEAP (secreted embryonic alkaline phosphatase) reporter gene under the control of the IFN-β minimal promoter fused to five NF-κB and AP-1-binding sites. Briefly, cells are seeded into Greiner 384 well plates (15000 cells per well for TLR7, 20,000 for TLR8 and 25,000 for TLR9) and then treated with test compounds in DMSO to yield a final dose response concentration range of 0.05 nM-50 μM. After a 30 minute compound pre-treatment at room temperature, the cells are then stimulated with a TLR7 ligand (gardiquimod at a final concentration of 7.5 μM), TLR8 ligand (R848 at a final concentration of 15.9 μM) or TLR9 ligand (ODN2006 at a final concentration of 5 nM) to activate NF-κB and AP-1 which induce the production of SEAP. After a 22 hour incubation at 37° C., 5% CO2, SEAP levels are determined with the addition of HEK-Blue™ Detection reagent (Invivogen), a cell culture medium that allows for detection of SEAP, according to manufacturer's specifications. The percent inhibition is determined as the % reduction in the HEK-Blue signal present in wells treated with agonist plus DMSO alone compared to wells treated with a known inhibitor.
row,SMILES,IC50 [µM]
1,"Cc1c(-c2[nH]c3sc(N4CCN(CCS(C)(=O)=O)C[C@@H]4C)nc3c2C(C)C)cn2ncnc2c1C [Example 344, (S)-5-(7,8-dimethyl-[1,2,4]triazolo[1,5-a]pyridin-6-yl)-6-isopropyl-2-(2-methyl-4-(2-(methylsulfonyl)ethyl)piperazin-1-yl)-4H-pyrrolo[3,2-d]thiazole]",> 50
2,"Cc1c(-c2[nH]c3sc(N4CCN(CC(N)=O)C[C@H]4C)nc3c2C(C)C)cn2ncnc2c1C [Example 313, (R)-2-(4-(5-(7,8-dimethyl-[1,2,4]triazolo[1,5-a]pyridin-6-yl)-6-isopropyl-4H-pyrrolo[3,2-d]thiazol-2-yl)-3-methylpiperazin-1-yl)acetamide]",> 50
3,"Cc1c(-c2[nH]c3sc(CN4CC5(CCOCC5)C4)nc3c2C(C)C)cn2ncnc2c1C [Example 404, 2-((5-(7,8-dimethyl-[1,2,4]triazolo[1,5-a]pyridin-6-yl)-6-isopropyl-4H-pyrrolo[3,2-d]thiazol-2-yl)methyl)-7-oxa-2-azaspiro[3.5]nonane]",> 50
4,"Cc1c(-c2[nH]c3sc(C4CCN(C5COC5)CC4)nc3c2C(C)C)cn(C)c(=O)c1C [Example 60, 5-(6-isopropyl-2-(1-(oxetan-3-yl)piperidin-4-yl)-4H-pyrrolo[3,2-d]thiazol-5-yl)-1,3,4-trimethylpyridin-2 (1H)-one]",> 50
5,"Cc1c(-c2[nH]c3sc(N4CCN(CCS(C)(=O)=O)CC4)nc3c2C(C)C)cn2ncnc2c1C [Example 282, 5-(7,8-dimethyl-[1,2,4]triazolo[1,5-a]pyridin-6-yl)-6-isopropyl-2-(4-(2-(methylsulfonyl)ethyl)piperazin-1-yl)-4H-pyrrolo[3,2-d]thiazole]",> 50
6,"Cc1cc(-c2[nH]c3sc(C(=O)NC4COC4)nc3c2C(C)C)cn2ncnc12 [Example 397, 6-isopropyl-5-(8-methyl-[1,2,4]triazolo[1,5-a]pyridin-6-yl)-N-(oxetan-3-yl)-4H-pyrrolo[3,2-d]thiazole-2-carboxamide]",> 50
7,"CC(C)c1c(-c2cn(C)c3ncccc23)[nH]c2sc(C3CCN(CCS(C)(=O)=O)CC3)nc12 [Example 33, 6-isopropyl-5-(1-methyl-1H-pyrrolo[2,3-b]pyridin-3-yl)-2-(1-(2-(methylsulfonyl)ethyl)piperidin-4-yl)-4H-pyrrolo[3,2-d]thiazole]",> 50
8,"Cc1c(-c2[nH]c3sc(N4CCN(C5COC5)CC4)nc3c2C(C)C)cn2ncnc2c1C [Example 286, 5-(7,8-dimethyl-[1,2,4]triazolo[1,5-a]pyridin-6-yl)-6-isopropyl-2-(4-(oxetan-3-yl)piperazin-1-yl)-4H-pyrrolo[3,2-d]thiazole]",> 50
9,"Cc1c(-c2[nH]c3sc(N4CC5(CN(CCS(C)(=O)=O)C5)C4)nc3c2C(C)C)cn(C)c(=O)c1C [Example 305, 5-(6-isopropyl-2-(6-(2-(methylsulfonyl)ethyl)-2,6-diazaspiro[3.3]heptan-2-yl)-4H-pyrrolo[3,2-d]thiazol-5-yl)-1,3,4-trimethylpyridin-2 (1H)-one]",> 50
10,"Cc1c(-c2[nH]c3sc(C(=O)NCCCN4CCCC4=O)nc3c2C(C)C)cn2ncnc2c1C [Example 371, 5-(7,8-dimethyl-[1,2,4]triazolo[1,5-a]pyridin-6-yl)-6-isopropyl-N-(3-(2-oxopyrrolidin-1-yl)propyl)-4H-pyrrolo[3,2-d]thiazole-2-carboxamide]",> 50
11,"Cc1c(-c2[nH]c3sc(CNCC(N)=O)nc3c2C(C)C)cn2ncnc2c1C [Example 402, 2-(((5-(7,8-dimethyl-[1,2,4]triazolo[1,5-a]pyridin-6-yl)-6-isopropyl-4H-pyrrolo[3,2-d]thiazol-2-yl)methyl)amino)acetamide]",> 50
12,"Cc1c(-c2[nH]c3sc(N4CC5(C4)CN(C4COC4)C5)nc3c2C(C)C)cn(C)c(=O)c1C [Example 306, 5-(6-isopropyl-2-(6-(oxetan-3-yl)-2,6-diazaspiro[3.3]heptan-2-yl)-4H-pyrrolo[3,2-d]thiazol-5-yl)-1,3,4-trimethylpyridin-2 (1H)-one]",> 50
13,"COC1CN(C(=O)c2nc3c(C(C)C)c(-c4cc(C)c5ncnn5c4)[nH]c3s2)C1 [Example 396, (6-isopropyl-5-(8-methyl-[1,2,4]triazolo[1,5-a]pyridin-6-yl)-4H-pyrrolo[3,2-d]thiazol-2-yl)(3-methoxyazetidin-1-yl)methanone]",> 50
14,"Cc1cc(-c2[nH]c3sc(C(=O)NCC4(S(C)(=O)=O)CC4)nc3c2C(C)C)cn2ncnc12 [Example 399, 6-isopropyl-5-(8-methyl-[1,2,4]triazolo[1,5-a]pyridin-6-yl)-N-((1-(methylsulfonyl)cyclopropyl)methyl)-4H-pyrrolo[3,2-d]thiazole-2-carboxamide]",> 50
15,"Cc1c(-c2[nH]c3sc(N4CCN(CC(N)=O)CC4)nc3c2C(C)C)cn2ncnc2c1C [Example 285, 2-(4-(5-(7,8-dimethyl-[1,2,4]triazolo[1,5-a]pyridin-6-yl)-6-isopropyl-4H-pyrrolo[3,2-d]thiazol-2-yl)piperazin-1-yl)acetamide]",> 50
16,"Cc1c(-c2[nH]c3sc(CN4CC5(C4)CS(=O)(=O)C5)nc3c2C(C)C)cn2ncnc2c1C [Example 403, 6-((5-(7,8-dimethyl-[1,2,4]triazolo[1,5-a]pyridin-6-yl)-6-isopropyl-4H-pyrrolo[3,2-d]thiazol-2-yl)methyl)-2-thia-6-azaspiro[3.3]heptane 2,2-dioxide]",> 50
17,"Cc1cc(-c2[nH]c3sc(C(N)=O)nc3c2C(C)C)cn2ncnc12 [Example 391, 6-isopropyl-5-(8-methyl-[1,2,4]triazolo[1,5-a]pyridin-6-yl)-4H-pyrrolo[3,2-d]thiazole-2-carboxamide]",> 50
18,"Cc1c(-c2[nH]c3sc(N4CCN(C5COC5)C[C@@H]4C)nc3c2C(C)C)cn2ncnc2c1C [Example 348, (S)-5-(7,8-dimethyl-[1,2,4]triazolo[1,5-a]pyridin-6-yl)-6-isopropyl-2-(2-methyl-4-(oxetan-3-yl)piperazin-1-yl)-4H-pyrrolo[3,2-d]thiazole]",> 50
19,"Cc1c(-c2[nH]c3sc(C(=O)N4CCCC4)nc3c2C(C)C)cn2ncnc2c1C [Example 377, (5-(7,8-dimethyl-[1,2,4]triazolo[1,5-a]pyridin-6-yl)-6-isopropyl-4H-pyrrolo[3,2-d]thiazol-2-yl)(pyrrolidin-1-yl)methanone]",> 50
20,"Cc1c(-c2[nH]c3sc(CN4CCOCC4)nc3c2C(C)C)cn2ncnc2c1C [Example 407, 4-((5-(7,8-dimethyl-[1,2,4]triazolo[1,5-a]pyridin-6-yl)-6-isopropyl-4H-pyrrolo[3,2-d]thiazol-2-yl)methyl)morpholine]",> 50
21,"Cc1c(-c2[nH]c3sc(C4CCN(CCS(C)(=O)=O)CC4)nc3c2C(C)C)cn(C)c(=O)c1C [Example 61, 5-(6-isopropyl-2-(1-(2-(methylsulfonyl)ethyl)piperidin-4-yl)-4H-pyrrolo[3,2-d]thiazol-5-yl)-1,3,4-trimethylpyridin-2 (1H)-one]",> 50
22,"Cc1cc(-c2[nH]c3sc(C(=O)N4CCCC4)nc3c2C(C)C)cn2ncnc12 [Example 393, (6-isopropyl-5-(8-methyl-[1,2,4]triazolo[1,5-a]pyridin-6-yl)-4H-pyrrolo[3,2-d]thiazol-2-yl)(pyrrolidin-1-yl) methanone]",> 50
23,"Cc1c(-c2[nH]c3sc(N4CCN(CC(=O)N(C)C)CC4)nc3c2C(C)C)cn2ncnc2c1C [Example 283, 2-(4-(5-(7,8-dimethyl-[1,2,4]triazolo[1,5-a]pyridin-6-yl)-6-isopropyl-4H-pyrrolo[3,2-d]thiazol-2-yl)piperazin-1-yl)-N,N-dimethylacetamide]",> 50
